Test results as given in PMC4624507 (2015).

How the values were obtained:
Test in all cases: ITC
Conditions in all cases: 135 mM KCl, 15 mM NaCl, 10 mM MgCl2; 50 mM TrisCl pH 8.0, 37 °C
[1] = system: metE aptamer A153C (RNA, riboswitch) GGCAUUUUCUCUUAUCGAGAGUUGGGCGAGGGAUUGGCCUUUUGACCCCAACAGCAACCGACCGUAAUACCAUUGUGAAAUGGGGCGCACUGCUUUUCGCGCCGAGACUGAUGUCUCAUAAGGCCCGGUGCUAAUUCCAUCAGAUUGUGUCUGAGAGAUGAGAGAGGCAGUG
[2] = system: B. subtilis metE wild type aptamer domain (RNA, riboswitch) GGCAUUUUCUCUUAUCGAGAGUUGGGCGAGGGAUUGGCCUUUUGACCCCAACAGCAACCGACCGUAAUACCAUUGUGAAAUGGGGCGCACUGCUUUUCGCGCCGAGACUGAUGUCUCAUAAGGCACGGUGCUAAUUCCAUCAGAUUGUGUCUGAGAGAUGAGAGAGGCAGUG
[3] = system: metE aptamer A153G (RNA, riboswitch) GGCAUUUUCUCUUAUCGAGAGUUGGGCGAGGGAUUGGCCUUUUGACCCCAACAGCAACCGACCGUAAUACCAUUGUGAAAUGGGGCGCACUGCUUUUCGCGCCGAGACUGAUGUCUCAUAAGGCGCGGUGCUAAUUCCAUCAGAUUGUGUCUGAGAGAUGAGAGAGGCAGUG
[4] = system: metE aptamer U157A (RNA, riboswitch) GGCAUUUUCUCUUAUCGAGAGUUGGGCGAGGGAUUGGCCUUUUGACCCCAACAGCAACCGACCGUAAUACCAUUGUGAAAUGGGGCGCACUGCUUUUCGCGCCGAGACUGAUGUCUCAUAAGGCACGGAGCUAAUUCCAUCAGAUUGUGUCUGAGAGAUGAGAGAGGCAGUG
[5] = system: metE aptamer A89G/Δ153 (RNA, riboswitch) GGCAUUUUCUCUUAUCGAGAGUUGGGCGAGGGAUUGGCCUUUUGACCCCAACAGCAACCGGCCGUAAUACCAUUGUGAAAUGGGGCGCACUGCUUUUCGCGCCGAGACUGAUGUCUCAUAAGGCCGGUGCUAAUUCCAUCAGAUUGUGUCUGAGAGAUGAGAGAGGCAGUG

KD,obs [1]: 0.15 ± 0.02 µM | KD,obs [2]: 0.079 ± 0.008 µM | KD,obs [3]: 0.15 ± 0.02 µM | KD,obs [4]: 24 ± 7 µM | KD,obs [5]: 16 ± 1 µM
Structure (SMILES): C[S+](CC[C@H](N)C(=O)O)C[C@H]1O[C@@H](n2cnc3c(N)ncnc32)[C@H](O)[C@@H]1O (some centres unmarked)
